This note sets out measurements from ChEMBL document CHEMBL3507680, “University of Dundee, Gates Library screen for HepG2 cell viability”.

The data set can be described thus: Human HepG2 cell viability assay in 384 well format. Type of data set: toxicity, cell-based. The settings on record: HepG2 cells, read-out: Inhibition. Set-up: dose 125 nL, time 70.5 hour; concentration not given beside the values.
In the case of `O=C(CCN1CCNCC1)N1CCC2(CC1)c1ccccc1CC2O` (configuration not stated), the cytotoxicity at 70.5 h is -6.68%.
Turning to `NCC1Cc2cc(Oc3cc(F)c(CN4CCCC4)c(F)c3)ccc2O1` (configuration not stated), the cytotoxicity at 70.5 h is -11.4%.
The figure for `N#Cc1cccc(NC2CC(=O)N(Cc3ccccc3Cl)C2)n1` (configuration not stated) is 18.9%; for `COc1cc(-c2nc(C3CC3)nn2-c2ccnc(C)c2)nc(OC)n1` it is -14.3%.
The figure for `Cc1cc(F)ccc1OC1(C(=O)O)CCN(Cc2cccnc2)CC1` is 3.7%.
Regarding `CN(C)Cc1nnc(C2CCCN(c3nc(C(N)=O)cs3)C2)n1C` (configuration not stated), the cytotoxicity at 70.5 h was -7.8%.
Regarding `CC(Cc1ccccn1)N(C)C(=O)c1ncc[nH]1` (configuration not stated), the cytotoxicity at 70.5 h was -8.42%.
With `Cc1nccn1CCN(C)C(=O)c1cn(-c2ccccc2)nn1` the figure was 33.5%.
The figure for `Cc1cc(F)ccc1N1CCC(N2C[C@@H](CN(C)C)[C@@H](CO)C2)CC1` is -6.24%.
As for `NC(=O)CN1CCC(C(=O)NCc2nc(-c3ccc(F)cc3)cs2)CC1`, the cytotoxicity at 70.5 h was -0.391%.
With `CCc1nnc(CN(CC)C(=O)C2CC(=O)N(C(C)(C)C)C2)o1` (configuration not stated) the figure was -4.84%.
With `COc1nc(C)c(C(=O)N2CCc3[nH]nc(C4CCCC4)c3C2)s1` the figure was -2%; with `CCc1cc(N2CCC(NCCc3ccccc3F)CC2)nc(C)n1`, 5.19%; with `CN(CCc1cn[nH]c1)C(=O)C1CC(=O)N(Cc2cccnc2)C1` (configuration not stated), 34.9%.
With `CSCc1nc(CNC(=O)C2CCCN(CC(N)=O)C2)cs1` (configuration not stated) the figure was 11.4%.
Turning to `COc1ccccc1OCc1cc(C(=O)N2CCCCCC2CO)n[nH]1` (configuration not stated), the cytotoxicity at 70.5 h was 8.73%.
The figure for `COc1ccccc1OCCCN(C)c1cc(C)nc(N)n1` is -4.86%.
With `O=C(NCCc1cnccn1)c1cccc(S(=O)(=O)NC2CCOC2)c1` (configuration not stated) the figure was -1.15%.
With `C[C@@H]1CN(C(=O)CCN2CCCC2)CC[C@@]1(O)C1CCC1` the figure was 1.37%; with `CC(C)C(NC(=O)c1ccc(=O)[nH]c1)c1nnc2n1CCNCC2` (configuration not stated), -6.19%; with `O=C(c1nc2sccn2c1-c1ncc[nH]1)N1CCCCC1`, -17.8%.
`O=C(CCC(=O)N1CCC(Cc2ccc(CO)cc2)C1)c1ccccc1` (configuration not stated): the cytotoxicity at 70.5 h is -13.8%.
The figure for `CN(Cc1nc2ccsc2c(=O)[nH]1)C[C@@H]1CCCN2CCCC[C@H]12` is 14.5%; for `O=C(CN1CCOC1=O)N1CCc2nnc(Cc3ccccc3)n2CC1` it is 17.1%.
For the compound `COCCC1(C(=O)O)CCCN(Cc2cc3c(cc2Cl)OCO3)C1` (configuration not stated), the cytotoxicity at 70.5 h is -5.22%.
In the case of `O=C1NC[C@@]2(C(=O)O)CN(Cc3cccc(C(F)(F)F)c3)C[C@@H]12`, the cytotoxicity at 70.5 h stood at 7.18%.
With `O=C(CCCn1ccnc1)N1CCC2(CC1)[C@H](O)C[C@@H]2OCCO` the figure was -7.46%; with `Cc1ccc(C2(CN3CCCC3)CCNCC2)nc1`, -9.4%.
With `CCN1CC(C(=O)N2CCC(Oc3ccccc3Cl)CC2)CC1=O` (configuration not stated) the figure was 4.13%.
With `COCCCC1(CO)CCCN(CCc2ccccc2)C1` (configuration not stated) the figure was -1.1%.
Consider `CNC(=O)C(C)(C)NC(=O)c1cc(OCC2CCC2)cc(C(=O)OC)c1`, for which the cytotoxicity at 70.5 h is -1.19%.
The figure for `CC(C)n1ccnc1C1CCCN(c2ccnc3ccccc23)C1` (configuration not stated) is -0.236%; for `Cc1ccc(Cl)cc1C(=O)N1CCC2(CC1)c1ccccc1[C@@H](N)[C@@H]2O` it is 15.9%.
Consider `O=C(Cc1ccc(O)c(Cl)c1)N1CCN(CC2CC2)[C@@H]2CS(=O)(=O)C[C@@H]21`, for which the cytotoxicity at 70.5 h was found to be 17.4%.
The figure for `Cc1ccc([C@@H]2CN(C(=O)c3ccc[nH]3)C[C@H]2NC(=O)C2CC2)cc1` is -8.09%; for `Cc1ccccc1[C@@H]1CN(C(=O)c2ccc3[nH]nnc3c2)C[C@H]1C(=O)O` it is -4.82%; for `CN(C)Cc1nnc(C2CCN(c3nccc(N)n3)CC2)n1C1CC1` it is 2.16%.
The figure for `Cn1c(Cn2cccn2)nnc1C1CCCN(c2ccncc2)C1` (configuration not stated) is -8.1%; for `N#Cc1cccc(S(=O)(=O)N2CCCCC2CCN2CCCC2=O)c1` (configuration not stated) it is -2.56%; for `Cc1nc(C(=O)N2CCc3c(nc(-c4ccncc4)[nH]c3=O)C2)cs1` it is -8.1%.
The figure for `CCc1csc(CCNC(=O)C2CC(=O)N(C(C)C)C2)n1` (configuration not stated) is 4.82%; for `COCCc1noc(CNC2CCSC2)n1` (configuration not stated) it is -10.2%; for `COc1cccc(F)c1C(=O)N1C[C@@H](CN(C)CCO)[C@@H](CO)C1` it is -8.49%.
On to `Cc1cncc(C(=O)N2CCCC(C(=O)CCc3ccccc3)C2)c1` (configuration not stated), for which the cytotoxicity at 70.5 h was -5.02%.
With `O=S1(=O)C[C@@H]2[C@H](C1)N(Cc1ncc[nH]1)CCN2CC1CC1` the figure was -5.56%; with `O=C(c1ccccn1)N1C[C@@H]2CC[C@H](C1)N(C(=O)CCc1cccs1)C2`, -5.4%.
In the case of `CC(C)NC(=O)[C@@H]1C[C@H](N)CN1C(=O)c1cc2c([nH]c1=O)CCCC2`, the cytotoxicity at 70.5 h was -7.39%.
The figure for `CCC(O)CNC(=O)C1(N(C)Cc2ccccc2)Cc2ccccc2C1` (configuration not stated) is -3.52%; for `CC(C)N1CCC(NCc2cccnc2N(C)Cc2ccccc2)CC1` it is -5.38%; for `Cc1ncccc1OC1(C(=O)NCCCN2CCOCC2)CCNCC1` it is -11.7%.
The figure for `CC(C)c1nc(N2CCN3CCCC3C2)c2cnn(C)c2n1` (configuration not stated) is 1.45%.
The figure for `CCCS(=O)(=O)N1C[C@H]2OC(=O)N(CCc3cccc(Cl)c3)[C@H]2C1` is -4.21%; for `COc1cccc2c1OCC(CNC(=O)CCCN1CCOCC1)C2` (configuration not stated) it is -7.84%; for `Cc1ccc(F)c(OC2(C(=O)O)CCN(C(=O)N3CCCC3)CC2)c1` it is -9.12%.
`Cc1ccc(C(NC(=O)[C@H]2CC[C@@H](O)CC2)c2cccnc2)cc1C` (some centres not stated): the cytotoxicity at 70.5 h was -6.91%.
With `Cc1ncnc(NCc2cc3n(n2)CCCN(S(C)(=O)=O)C3)c1C` the figure was -12.3%; with `O=C(CSc1ccccn1)N1C[C@H]2CC[C@@H]1CN(Cc1cscn1)C2`, -8.62%; with `CC(=O)c1cc(CC(=O)NCc2ccc(F)cc2)cs1`, -1.82%.
With `CCN(C)Cc1cnc(S(=O)(=O)CC)n1CCOC` the figure was -3.96%; with `COC[C@@]12CC[C@@H](N3CCOCC3)C[C@H]1CCN(c1ncccc1Cl)C2`, -4.77%; with `CN(C)C(=O)c1ccc2c(c1)N(C)C(CC(=O)NC(C)(C)CO)CO2` (configuration not stated), 18.8%.
The figure for `Cc1ccccc1C1CCCN1C(=O)CN1CC2(CCNCC2)OC1=O` (configuration not stated) is -4.74%.
Turning to `Cc1cc(N2CCN(Cc3ccccc3)CC(O)C2)cc(C)n1` (configuration not stated), the cytotoxicity at 70.5 h was found to be 11.5%.
With `COc1ccc(C(=O)N2CC[C@H](CO)[C@H](O)C2)c(C)c1` the figure was -4.34%; with `CSc1ncccc1C(=O)N1C[C@H]2CC[C@@H]1CN(c1ncccn1)C2`, -10.3%; with `O=C1CC(NCc2ccncc2)CN1Cc1cccc(F)c1` (configuration not stated), 1.94%.
With `CCN1CC2(CCC1=O)CCN(C(=O)c1ccc(Cl)cc1O)CC2` the figure was -2.93%; with `CCCS(=O)(=O)NCC1CCOc2ccccc2C1` (configuration not stated), -1.69%.
With `O=C(Nc1nncs1)NC1CCN(Cc2ccccc2)C1` (configuration not stated), the cytotoxicity at 70.5 h is -5.56%.
The figure for `CN(C)c1cc(C(=O)N2CCCC2)ccn1` is -10%.
The figure for `Cc1nccn1C1CCCN(C(=O)CCOCC(F)(F)F)C1` (configuration not stated) is 17.2%.
With `Cc1cc(CN2CCC(N(C)Cc3noc(C4CC4)n3)C2)on1` (configuration not stated) the figure was 19.5%.
Consider `Cn1cnc2c1CCN(Cc1cccc(C(=O)N3CCCCC3)c1)C2`, for which the cytotoxicity at 70.5 h was -7.19%.
The figure for `COc1cc(C)nc(N2CCN(C(=O)COCC3CC3)CC2)n1` is -3.61%; for `O=C1C(NCc2nnc3n2CCCC3)CCN1c1ccccc1F` (configuration not stated) it is -20.6%.
The figure for `Cc1ccc(-c2cc(C(=O)NCCN3CCCS3(=O)=O)[nH]n2)cc1` is 11.7%; for `COc1ccnc(N2CCN(C(=O)COCC(F)(F)F)CC2)n1` it is 13%; for `CC(O)CN1CCC(CNCc2ccccc2Cl)CC1` (configuration not stated) it is -7.56%.
With `CC(C)CNC(=O)c1cccc(CN2CCc3c(ncn3C)C2)c1` the figure was -13.6%; with `CCn1ccnc1CN1CCN(CC(O)c2ccc(OC)cc2)CC1` (configuration not stated), 12.3%; with `Cn1nc2c(cc1=O)CN(Cc1nc(-c3ccccn3)no1)CC2`, -9%.
With `Cc1ccc(N2CCCC(NCc3nnc4n3CCCC4)C2=O)cc1` (configuration not stated), the cytotoxicity at 70.5 h was -10.2%.
With `CCn1nc2c(cc1=O)CN(Cc1nc(-c3cccnc3)no1)CC2` the figure was -14.4%; with `O=C(NCc1nn(-c2ccccc2)c2c1CCC2)NC1CCOCC1`, -0.276%; with `CNC(=O)NCc1nn(-c2ccccc2)c2c1CCC2`, -4.98%.
The figure for `CN(Cc1noc(C2CC2)n1)C1CCN(Cc2ncc[nH]2)C1` (configuration not stated) is 12.2%; for `CCc1cc(CNC(=O)N2CCC(Cc3cnn(C)c3)C2)on1` (configuration not stated) it is -4.1%.
The figure for `Cc1occc1CNC(=O)N1CCC(Cc2cnn(C)c2)C1` (configuration not stated) is -2.55%.
Regarding `Cn1cc(CC2CCN(C(=O)NCc3cccc(C#N)c3)C2)cn1` (configuration not stated), the cytotoxicity at 70.5 h is -5%.
The figure for `COc1ccccc1CC(=O)N1CCCC(CNS(C)(=O)=O)C1` (configuration not stated) is -9.26%; for `CS(=O)(=O)NCC1CCCN(C(=O)CCCc2ccccc2)C1` (configuration not stated) it is -8.93%.
With `Cc1nccn1C1CCCN(C(=O)COC2CCCC2)C1` (configuration not stated) the figure was -4.55%; with `Cc1nccn1C1CCCN(C(=O)COCC2CC2)C1` (configuration not stated), -6.29%; with `Cc1cnn(CC2CCCN2Cc2cc(C)no2)c1` (configuration not stated), -14%.
With `CCc1ocnc1C(=O)N1CCCC1c1noc(C2CC2)n1` (configuration not stated) the figure was -9.72%.
With `CN(Cc1noc(C2CC2)n1)C1CCN(Cc2ccc(F)c(F)c2)C1` (configuration not stated), the cytotoxicity at 70.5 h is -8.17%.
With `O=C(COCC(F)(F)F)N1CCCC(n2cccn2)C1` (configuration not stated) the figure was -8.85%.
